According to ChEMBL document CHEMBL4382204 (Eur J Med Chem, 2018):

Experiments:
[1] = test system: Bcr/Abl fusion protein (Homo sapiens), P00519+P11274 [T315I]; settings: BaF3
[2] = Antiproliferative activity in mouse BAF3 cells after 72 hrs by CCK8 assay; assay type: cell-based
[3] = target: Bcr/Abl fusion protein (Homo sapiens) (UniProt P00519+P11274); settings: BaF3
Description: Inhibition of wild type BCR/ABL (unknown origin) transfected in mouse BAF3 cells assessed as growth inhibition after 72 hrs by CCK8 assay

KU812 cell line = test: Antiproliferative activity in human KU812 cells after 72 hrs by CCK8 assay; assay type: functional; settings: KU812, 72 h
[4] = Antiproliferative activity in CHO cells after 72 hrs by CCK8 assay; assay type: cell-based, Cricetulus griseus; settings: chinese hamster
U-937 = test: Antiproliferative activity in human U937 cells after 72 hrs by CCK8 assay; assay type: functional; settings: U-937, 72 h
MEG-01 = test: Antiproliferative activity in human MEG01 cells after 72 hrs by CCK8 assay; assay type: functional; settings: MEG-01, 72 h
HL-60 = test: Antiproliferative activity in human HL60 cells after 72 hrs by CCK8 assay; assay type: functional; settings: HL-60, 72 h
OCI-AML2 = test: Antiproliferative activity in human OCI-AML2 cells after 72 hrs by CCK8 assay; assay type: functional; settings: OCI-AML2, 72 h
MEC1 = test: Antiproliferative activity in human MEC1 cells after 72 hrs by CCK8 assay; assay type: functional; settings: MEC1, 72 h
K562 = test: Antiproliferative activity in human K562 cells after 72 hrs by CCK8 assay; assay type: functional; settings: K562, 72 h
[5] = Selectivity ratio of GI50 for mouse BAF3 cells to GI50 for BCR/ABL T315I mutant (unknown origin) transfected in mouse BAF3 cells
[6] = Selectivity ratio of GI50 for mouse BAF3 cells to GI50 for wild type BCR/ABL (unknown origin) transfected in mouse BAF3 cells
BaF3 = test: Antitumor activity against mouse BAF3 cells expressing BCR/ABL T315I mutant allografted in nu/nu mouse assessed as tumor weight at 100 mg/kg, po administered via gavage measured for 14 days (reference value: 2.78 g); assay type: functional

Sequence of Bcr/Abl fusion protein (Homo sapiens) (P00519 whole entry, looked up, the tested form may be a part): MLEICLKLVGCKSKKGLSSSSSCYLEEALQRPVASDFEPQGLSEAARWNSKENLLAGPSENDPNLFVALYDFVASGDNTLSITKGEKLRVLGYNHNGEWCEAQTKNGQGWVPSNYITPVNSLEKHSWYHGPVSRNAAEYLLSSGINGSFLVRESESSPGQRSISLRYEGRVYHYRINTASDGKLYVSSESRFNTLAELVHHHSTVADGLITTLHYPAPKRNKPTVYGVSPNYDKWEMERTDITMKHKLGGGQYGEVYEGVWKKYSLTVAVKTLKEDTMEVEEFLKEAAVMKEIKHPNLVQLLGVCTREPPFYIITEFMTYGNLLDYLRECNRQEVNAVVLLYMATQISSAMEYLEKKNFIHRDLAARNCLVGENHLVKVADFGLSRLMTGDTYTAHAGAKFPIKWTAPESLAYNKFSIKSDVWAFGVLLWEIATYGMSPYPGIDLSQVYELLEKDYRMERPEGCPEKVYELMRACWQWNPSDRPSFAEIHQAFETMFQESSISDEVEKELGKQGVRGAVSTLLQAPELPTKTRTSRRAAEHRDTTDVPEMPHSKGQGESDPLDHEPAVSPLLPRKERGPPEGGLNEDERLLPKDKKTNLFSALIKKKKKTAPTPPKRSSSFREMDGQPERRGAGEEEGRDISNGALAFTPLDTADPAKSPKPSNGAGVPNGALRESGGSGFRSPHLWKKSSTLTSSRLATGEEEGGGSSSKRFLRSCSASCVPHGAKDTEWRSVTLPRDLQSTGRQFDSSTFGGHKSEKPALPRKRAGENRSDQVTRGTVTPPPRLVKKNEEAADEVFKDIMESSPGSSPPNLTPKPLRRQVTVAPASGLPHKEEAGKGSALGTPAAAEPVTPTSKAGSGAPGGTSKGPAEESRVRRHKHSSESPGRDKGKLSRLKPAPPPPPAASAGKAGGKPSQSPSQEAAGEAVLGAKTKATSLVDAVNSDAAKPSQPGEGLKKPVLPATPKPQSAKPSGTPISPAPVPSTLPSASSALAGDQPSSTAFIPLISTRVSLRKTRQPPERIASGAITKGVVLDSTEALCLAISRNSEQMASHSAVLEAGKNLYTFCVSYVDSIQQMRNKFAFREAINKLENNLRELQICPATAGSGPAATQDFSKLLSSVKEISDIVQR
Sequence of Bcr/Abl fusion protein (Homo sapiens) (P11274 whole entry, looked up, the tested form may be a part): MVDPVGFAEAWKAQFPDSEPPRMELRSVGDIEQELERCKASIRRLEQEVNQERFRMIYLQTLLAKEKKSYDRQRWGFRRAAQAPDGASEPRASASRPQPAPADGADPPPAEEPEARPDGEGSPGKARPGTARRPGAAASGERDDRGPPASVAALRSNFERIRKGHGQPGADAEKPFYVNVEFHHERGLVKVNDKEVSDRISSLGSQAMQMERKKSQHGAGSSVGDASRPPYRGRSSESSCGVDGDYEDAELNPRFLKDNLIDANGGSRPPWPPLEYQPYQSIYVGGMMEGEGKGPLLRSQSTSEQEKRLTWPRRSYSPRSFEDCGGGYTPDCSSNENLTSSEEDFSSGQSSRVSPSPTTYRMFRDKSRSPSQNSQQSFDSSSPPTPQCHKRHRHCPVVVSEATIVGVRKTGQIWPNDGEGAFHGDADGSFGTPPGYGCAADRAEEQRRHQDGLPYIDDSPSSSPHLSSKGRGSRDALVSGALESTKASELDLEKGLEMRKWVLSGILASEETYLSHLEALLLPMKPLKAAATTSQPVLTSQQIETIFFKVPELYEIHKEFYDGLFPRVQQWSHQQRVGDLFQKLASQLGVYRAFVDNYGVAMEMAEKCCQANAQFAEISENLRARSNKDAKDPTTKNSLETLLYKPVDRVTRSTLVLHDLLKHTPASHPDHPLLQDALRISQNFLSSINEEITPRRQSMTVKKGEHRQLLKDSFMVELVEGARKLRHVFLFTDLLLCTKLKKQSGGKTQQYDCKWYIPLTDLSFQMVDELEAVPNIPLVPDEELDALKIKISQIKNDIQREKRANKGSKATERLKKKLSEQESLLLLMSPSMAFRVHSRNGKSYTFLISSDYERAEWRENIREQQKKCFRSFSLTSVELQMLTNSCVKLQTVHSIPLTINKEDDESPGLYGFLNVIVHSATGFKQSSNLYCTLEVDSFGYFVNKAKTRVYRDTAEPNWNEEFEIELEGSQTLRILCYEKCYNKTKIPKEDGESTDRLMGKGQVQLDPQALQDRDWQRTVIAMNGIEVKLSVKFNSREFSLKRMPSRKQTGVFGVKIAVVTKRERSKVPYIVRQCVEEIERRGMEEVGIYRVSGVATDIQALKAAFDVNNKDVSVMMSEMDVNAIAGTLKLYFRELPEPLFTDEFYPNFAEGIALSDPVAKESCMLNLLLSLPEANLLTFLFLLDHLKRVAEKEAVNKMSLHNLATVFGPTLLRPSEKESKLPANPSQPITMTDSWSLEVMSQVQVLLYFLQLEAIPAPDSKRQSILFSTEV

GI50 [1]	GI50 [3]	Compound	GI50 at 72 h [2]	further results
510 nM	500 nM	O=C(CCSc1ccc2c(/C=C/c3ccccn3)n[nH]c2c1)Nc1ccccc1	0.69 µM	–
4030 nM	3150 nM	Cc1cccc(NC(=O)CCSc2ccc3c(/C=C/c4ccccn4)n[nH]c3c2)c1	> 10 µM	–
110 nM	110 nM	CN(C)CCN(C)Cc1ccc(NC(=O)CCSc2ccc3c(/C=C/c4ccccn4)n[nH]c3c2)cc1C(F)(F)F	1.85 µM	–
4490 nM	2870 nM	Cc1ccc(NC(=O)CCSc2ccc3c(/C=C/c4ccccn4)n[nH]c3c2)cc1	> 10 µM	–
860 nM	590 nM	COc1ccc(NC(=O)CCSc2ccc3c(/C=C/c4ccccn4)n[nH]c3c2)cc1C(F)(F)F	> 10 µM	–
2910 nM	1560 nM	O=C(CCSc1ccc2c(/C=C/c3ccccn3)n[nH]c2c1)Nc1cccc(Cl)c1	9.35 µM	–
1750 nM	1980 nM	CC1CCN(Cc2ccc(NC(=O)CCSc3ccc4c(/C=C/c5ccccn5)n[nH]c4c3)cc2C(F)(F)F)CC1	4.17 µM	–
120 nM	150 nM	O=C(CCSc1ccc2c(/C=C/c3ccccn3)n[nH]c2c1)Nc1ccc(CN2CCCC2)c(C(F)(F)F)c1	4 µM	–
3210 nM	3220 nM	COc1cccc(NC(=O)CCSc2ccc3c(/C=C/c4ccccn4)n[nH]c3c2)c1	3.84 µM	–
2670 nM	2710 nM	O=C(CCSc1ccc2c(/C=C/c3ccccn3)n[nH]c2c1)Nc1ccc(Cl)c(C(F)(F)F)c1	> 10 µM	–
1990 nM	1510 nM	O=C(CCSc1ccc2c(/C=C/c3ccccn3)n[nH]c2c1)Nc1cccc(F)c1	6.59 µM	–
5520 nM	9670 nM	CN(C)c1cccc(NC(=O)CCSc2ccc3c(/C=C/c4ccccn4)n[nH]c3c2)c1	> 10 µM	–
120 nM	300 nM	O=C(CCSc1ccc2c(/C=C/c3ccccn3)n[nH]c2c1)Nc1ccc(F)c(C(F)(F)F)c1	0.61 µM	–
4 nM	4 nM	CCN1CCN(Cc2ccc(NC(=O)CCSc3ccc4c(/C=C/c5ccccn5)n[nH]c4c3)cc2C(F)(F)F)CC1	0.84 µM	RatioGI50 [5]: 200; RatioGI50 [6]: 200
7050 nM	3390 nM	O=C(CCSc1ccc2c(/C=C/c3ccccn3)n[nH]c2c1)NCc1cccc(C(F)(F)F)c1	8.03 µM	–
88 nM	160 nM	Cc1ccc(NC(=O)CCSc2ccc3c(/C=C/c4ccccn4)n[nH]c3c2)cc1C(F)(F)F	0.53 µM	–
280 nM	900 nM	O=C(CCSc1ccc2c(/C=C/c3ccccn3)n[nH]c2c1)Nc1cccc(C(F)(F)F)c1	2.3 µM	–
2060 nM	2740 nM	O=C(NCCSc1ccc2c(/C=C/c3ccccn3)n[nH]c2c1)Nc1cccc(C(F)(F)F)c1	3 µM	–
210 nM	160 nM	O=C(CCSc1ccc2c(/C=C/c3ccccn3)n[nH]c2c1)Nc1ccc(CN2CCOCC2)c(C(F)(F)F)c1	3.97 µM	–

The next lines start with the compound.

Compound	GI50 [1]	GI50 [3]	GI50 at 72 h [2]	further results
CN1CCN(Cc2ccc(NC(=O)CCSc3ccc4c(-c5cnn(C)c5)n[nH]c4c3)cc2C(F)(F)F)CC1	20 nM	15 nM	1.4 µM	–
CN1CCN(c2cccc(NC(=O)CCSc3ccc4c(/C=C/c5ccccn5)n[nH]c4c3)c2)CC1	8180 nM	8240 nM	> 10 µM	–
CN1CCN(Cc2ccc(C(=O)NCCCSc3ccc4c(/C=C/c5ccccn5)n[nH]c4c3)cc2C(F)(F)F)CC1	330 nM	22 nM	4.4 µM	–
CN1CCN(Cc2ccc(NC(=O)NCCSc3ccc4c(/C=C/c5ccccn5)n[nH]c4c3)cc2C(F)(F)F)CC1	240 nM	180 nM	3.1 µM	–
Cc1ccc(-c2n[nH]c3cc(SCCC(=O)Nc4ccc(CN5CCN(C)CC5)c(C(F)(F)F)c4)ccc23)cn1	49 nM	91 nM	1.18 µM	–
CN1CCN(Cc2ccc(NC(=O)CCSc3ccc4c(-c5cccnc5)n[nH]c4c3)cc2C(F)(F)F)CC1	58 nM	70 nM	2.65 µM	–
CN1CCN(Cc2ccc(C(=O)NCCSc3ccc4c(/C=C/c5ccccn5)n[nH]c4c3)cc2C(F)(F)F)CC1	930 nM	750 nM	4.8 µM	–
CN1CCN(Cc2ccc(NC(=O)CCSc3ccc4c(-c5ccccc5)n[nH]c4c3)cc2C(F)(F)F)CC1	110 nM	32 nM	0.6 µM	–
CN1CCN(Cc2ccc(NC(=O)CCSc3ccc4c(-c5ccncc5)n[nH]c4c3)cc2C(F)(F)F)CC1	18 nM	38 nM	1.06 µM	–
O=C(NCCCSc1ccc2c(/C=C/c3ccccn3)n[nH]c2c1)c1cccc(C(F)(F)F)c1	650 nM	500 nM	0.98 µM	–
O=C(NCCSc1ccc2c(/C=C/c3ccccn3)n[nH]c2c1)c1cccc(C(F)(F)F)c1	1620 nM	2720 nM	1.5 µM	–
CNC(=O)c1ccccc1Sc1ccc2c(/C=C/c3ccccn3)n[nH]c2c1 [AXITINIB]	–	–	1.64 µM	GI50 (KU812 cell line): 500 nM; GI50 at 72 h [4]: > 10 µM; GI50 (U-937): 1980 nM; GI50 (MEG-01): 970 nM; GI50 (HL-60): 6.78 µM; GI50 (OCI-AML2): 2360 nM; GI50 (MEC1): 1540 nM; GI50 (K562): 940 nM
CNC(=O)CCSc1ccc2c(/C=C/c3ccccn3)n[nH]c2c1	> 10000 nM	> 10000 nM	> 10 µM	–
Cc1ccc(NC(=O)c2ccc(CN3CCN(C)CC3)cc2)cc1Nc1nccc(-c2cccnc2)n1 [IMATINIB]	–	–	> 10 µM	GI50 (KU812 cell line): 310 nM; GI50 at 72 h [4]: > 10 µM; GI50 (U-937): > 10000 nM; GI50 (MEG-01): 280 nM; GI50 (HL-60): > 10 µM; GI50 (OCI-AML2): > 10000 nM; Activity (BaF3): 3.36 g; GI50 (MEC1): > 10000 nM; GI50 (K562): 250 nM
Cc1n[nH]c2cc(SCCC(=O)Nc3ccc(CN4CCN(C)CC4)c(C(F)(F)F)c3)ccc12	170 nM	330 nM	3.9 µM	–
